In ChEMBL document CHEMBL1128008, “Synthesis of etoposide phosphate, BMY-40481: A water-soluble clinically active prodrug of etoposide” (Bioorg Med Chem Lett, 1994):
The source made the active and inactive calls. The rule behind the calls is not given here.

How the values were obtained:
[1] = Plasma half life in dog; type: ADME, organism-based, Canis lupus familiaris
[2] = Plasma half life in human; type: ADME, cell-free
[3] = Plasma half life in monkey; type: ADME; details: cercopithecidae
[4] = Plasma half life in mouse; type: ADME, organism-based
[5] = tested on: B16; assay: Inhibitory activity administered was determined against sc B16 melanoma cells; Active; type: functional, organism-based; details: Mus musculus
[6] = tested on: Homo sapiens; assay: Antitumor activity administered ip was determined in human model; Active; type: functional, organism-based
[7] = tested on: L1210; assay: Inhibitory activity administered was determined against ic L1210 leukemia cells; Active; type: functional; details: Mus musculus
[8] = tested on: P388; assay: Inhibitory activity administered iv was determined against implanted P388 leukemia cells; Active; type: functional, organism-based; details: Mus musculus
[9] = tested on: P388; assay: Inhibitory activity administered was determined against ic P388 leukemia cells; Active; type: functional; details: Mus musculus
[10] = tested on: Mus musculus; assay: Antitumor activity administered ip, po was determined in murine model; Active; type: functional, organism-based

SMILES	half-life [1] [min]	half-life [2] [min]	half-life [3] [min]	half-life [4] [min]	Activity [5]	Activity [6]	Activity [7]	Activity [8]	Activity [9]	Activity [10]
COc1cc([C@H]2c3cc4c(cc3[C@@H](O[C@@H]3O[C@H]5CO[C@@H](C)O[C@H]5[C@H](O)[C@@H]3O)[C@H]3COC(=O)[C@H]23)OCO4)cc(OC)c1OP(=O)([O-])[O-].[Na+].[Na+]	124	45	39	39	Active	Active	Active	Active	Active	
COc1cc(C2c3cc4c(cc3[C@@H](O[C@@H]3O[C@@H]5CO[C@@H](C)O[C@H]5[C@H](O)[C@H]3O)[C@H]3COC(=O)[C@H]23)OCO4)cc(OC)c1O (single isomer, unassigned)						Active				Active
